Laboratory results from patent US20130296330A1, “MACROCYCLIC INTEGRASE INHIBITORS FOR USE IN THE TREATMENT OF FELINE IMMUNODEFICIENCY VIRUS” (ELANCO ANIMAL HEALTH IRELAND LIMITED, priority 2011, published 2013).

Columns and labels:
[1] = test system: FIV strain Utrecht-113; assay: Inhibitory activity on FIV replication wild type, CRFK cells (FIV p24 ELISA); format: cell-based; conditions: Feline immunodeficiency virus, 144 h, FIV strain Utrecht-113, 6 days, read-out: EC50 (concentration required to reduce antigen production by 50%)
Protocol: (§1) The anti-FIV activity of the compounds was tested in primary feline thymocytes isolated form specific pathogen free cats, and in Crandell feline kidney (CRFK) cells.
Crandell Feline Kidney (CRFK) cells were maintained in DMEM (Dulbecco's Modified Eagle's Medium (Lonza) supplemented with, 10% inactivated fetal calf serum, antibiotics (100 IU/ml penicillin and 100 μg/ml streptomycin). Cells were seeded into a 96 well plate (5×10^4 cells per well) and pre-incubated with four-fold dilutions of the antiviral compound for 1 hours. The CrFK cells were washed with PBS DEAE 50 mg/l, inoculated with 100 TCID50 of FIV strain Utrecht-113 in the presence of the different concentrations of compound and subsequently incubated for 2 hours in a humidified incubator with a 5% CO2 atmosphere at 37° C. After 2 hours cells were washed twice in DMEM medium and new medium containing the different concentrations of compound were added. After incubation for 6 days the supernatant was harvested and the amount of virus within the supernatant determined using a FIV p24 ELISA. The 50% effective concentration (EC50) was defined as the concentration of the compound required to reduce the antigen production by 50% compared to untreated controls.

[2] = Cellular cytotoxic activity, mock-infected feline thymocytes, trypan blue exclusion staining; format: cell-based; conditions: cat, read-out: CC50 (50% cytotoxic concentration)
Protocol: (§2) The cytotoxicity of the compounds was determined in parallel to the experiments under assay 1 on mock-infected feline thymocytes respectively CRFK cells cultured in the presence or absence of different concentrations of the compound.
Cytotoxicity on feline thymocytes was determined by trypan blue exclusion staining whereby the CC50 for compound (6) was measured as >10 nM.

[3] = Cellular cytotoxic activity, mock-infected CRFK cells, MTT assay; format: cell-based, feline; conditions: cat, read-out: CC50 (50% cytotoxic concentration)
Protocol: as §2
After 6 days of incubation cell viability of the CRFK cells was measured by using a colorimetric MTT assay. A solution of 3-(4,5-dimethylthiazol-2-yl)-2,5-diphenyltetrazolium bromide (MTT) in PBS at a final concentration of 0.5 mg/ml was added to each well. After 2 hours incubation at 37 C and 5% CO2, the medium containing the MTT was removed and the cells were lysed by addition of 200 μl DMSO to each well. Following 10 minutes incubation at room temperature on a rocking plate, the optical density (OD) values at […] were determined. The compound concentration that decreased the viability of 50% of the cells was defined as the 50% cytotoxic concentration (CC50).

[4] = test system: FIV strain Thymo-113; assay: Inhibitory activity on FIV replication wild type, feline thymocytes (FIV p24 ELISA); format: cell-based; conditions: Feline immunodeficiency virus, Thymocyte, 144 h, primary feline thymocytes, FIV strain Thymo-113, 6 days, read-out: EC50 (concentration required to reduce antigen production by 50%)
Protocol: as §1
Feline thymocytes were maintained in complete Iscove's Modified Medium (Iscoves medium supplemented with GlutamaxI (Invitrogen/Gibco BRL), 10% inactivated fetal calf serum, antibiotics (100 IU/ml penicillin and 100 μg/ml streptomycin) 2-Mercapto-ethanol (50 μM) and 100 IU/ml human recombinant IL-2 (Chiron). Cells were seeded into a 96 well plate (5×10^4 cells per well) and pre-incubated with four-fold dilutions of the antiviral compound. Plates were incubated for 1 hour in a humidified incubator with a 5% CO2 atmosphere at 37° C. Subsequently, cells were inoculated with 100 TCID50 of FIV strain Thymo-113 in the presence of the different concentrations of compound. After 2 hours cells were washed twice in Iscove's medium and new medium containing the different concentrations of compound were added. After incubation for 6 days the supernatant was harvested and the amount of virus within the supernatant determined using a FIV p24 ELISA. The 50% effective concentration (EC50) was defined as the concentration of the compound required to reduce the antigen production by 50% compared to untreated controls.

For `CN1c2nc(c(O)c3ncccc23)C(=O)NCc2ccc(F)cc2C(=O)NCCCCCS1(=O)=O` [Compound 6], the EC50 [1] was 20 nM, the CC50 [2] was > 10 nM and the CC50 at 6 days [3] was > 10 nM. It also gave an EC50 [4] of 20 nM.
